From US20200277571A1, “METHOD FOR AMPLIFYING CONE PHOTORECEPTORS OR ROD PHOTORECEPTORS USING DORSALIZATION SIGNAL TRANSMITTER OR VENTRALIZATION SIGNAL TRANSMITTER” (RIKEN, priority 2017, published 2020) come the findings set out here.

For series [1], the system named is photoreceptor precursor and cone photoreceptor precursor in retinal tissue produced from human ES cells. Briefly: Immunostaining for CRX and TRβ2 and CRX::Venus fluorescence observation of retinal tissue, day 70-75 of suspension culture. It counts as cell-based. The conditions noted are these: for CRX-positive and TRβ2-positive cells (cone photoreceptor precursor; proportion to DAPI-positive cells): day 70-75, Control (NUC) about 6.8%; for CRX-positive and TRβ2-positive cells (cone photoreceptor precursor; proportion to DAPI-positive cells) / CRX-positive cells (proportion to DAPI-positive cells) / green fluorescence shown by knocked-in CRX::Venus (order of groups) / cone photoreceptor precursor that emerges in initial stage of development (CRX-positive, TRβ2-expressing) versus Control group / CRX-positive cells (photoreceptor precursors) versus retinal tissue of the Control group: 0.15 nM BMP4, 500 nM Cyclopamine-KAAD; for CRX-positive and TRβ2-positive cells (cone photoreceptor precursor; proportion to DAPI-positive cells) / CRX-positive cells (proportion to DAPI-positive cells): 100 nM LDN193189 or 100 nM SAG from day 22; for CRX-positive cells (proportion to DAPI-positive cells): day 70-75 from start of suspension culture, Control (NUC) about 10.6%; for green fluorescence shown by knocked-in CRX::Venus (order of groups): day 70, fluorescence microscope; for green fluorescence shown by knocked-in CRX::Venus (order of groups) / cone photoreceptor precursor that emerges in initial stage of development (CRX-positive, TRβ2-expressing) versus Control group / CRX-positive cells (photoreceptor precursors) versus retinal tissue of the Control group: 100 nM LDN193189, 100 nM SAG from day 22; for cone photoreceptor precursor that emerges in initial stage of development (CRX-positive, TRβ2-expressing) versus Control group: day 70 or 75; for CRX-positive cells (photoreceptor precursors) versus retinal tissue of the Control group / CRX::Venus-positive cells (GFP immunostaining) versus Control (NUC) group: day 75; for CRX-positive cells (photoreceptor precursors) versus retinal tissue of the Control group: immunostained sections; for CRX::Venus-positive cells (GFP immunostaining) versus Control (NUC) group: along with change of ALDH1A3 region, 0.15 nM BMP4, 100 nM LDN193189, 100 nM SAG from day 22. On the procedure:
CRX::Venus knock-in human ES cells (derived from KhES-1; Nakano, T. et al. Cell Stem Cell 2012, 10(6), 771-785) were cultured according to the methods described in “Ueno, M. et al. PNAS 2006, 103(25), 9554-9559” “Watanabe, K. et al. Nat Biotech 2007, 25, 681-686”. As a medium for culturing human ES cells, DMEM/F12 medium (Sigma) supplemented with 20% KSR (KnockOut™ Serum Replacement; Invitrogen), 0.1 mM 2-mercaptoethanol, 2 mM L-glutamine, ix non-essential amino acid, 7.5 ng/mL bFGF was used.
(§1) A cell aggregate containing a retinal tissue was prepared by the method described in “Kuwahara et al. Nat Commun 2015, 19(6), 6286-” after modification in part. That is, the aforementioned cultured ES cells were individually dispersed using TrypLE Express (Invitrogen), and the individually dispersed human ES cells were suspended in 100 μL of a serum-free medium in a cell non-adhesive 96 well plate (SUMILON spheroid plate, SUMITOMO BAKELITE CO., LTD.) at 9×10^3 cells per well to allow rapid formation of aggregates, after which they were cultured at 37° C., 5% CO2. As the serum-free medium therefor, a serum-free medium obtained by adding 10% KSR, 450 μM 1-monothioglycerol, 1× Chemically defined lipid concentrate, 5 mg/mL BSA, 20 μM Y27632 to a 1:1 mixture of F-12 medium and IMDM medium was used. At 6 days after the start of suspension culture, BMP4 at a final concentration of 1.5 nM was added and suspension culture was continued. A half amount of the culture medium in the well was exchanged with the above-mentioned medium not supplemented with a BMP signal transduction pathway agonist every 3 or 4 days. A cell aggregate containing a retinal tissue at day 18 from the start of suspension culture was cultured in suspension in a serum-free medium (DMEM/F12 medium supplemented with 1% N2 supplement) containing 3 μM CHIR99021 and 5 μM SU5402 for 4 days, namely, up to day 22 from the start of suspension culture. Thereafter, suspension culture of the cell aggregate containing the retinal tissue was continued until it was appropriately used for analysis and the like. As the culture medium during this period, serum-containing media shown in the following to [3] were used and the cell aggregate was cultured under 5% CO2 conditions.
(§2) [1] day 22 to day 38 from the start of suspension culture; DMEM/F12 medium supplemented with 10% fetal calf serum, 1% N2 supplement, and 100 μM taurine. day 38 to day 60 from the start of suspension culture; a 1:3 mixed medium of DMEM/F12 medium supplemented with 10% fetal calf serum, 1% N2 supplement, and 100 μM taurine, and Neurobasal medium supplemented with 10% fetal calf serum, 2% B27 supplement, and 100 μM taurine. after day 60 from the start of suspension culture; Neurobasal medium supplemented with 10% fetal calf serum, 2% B27 supplement, and 100 μM taurine.
[1] Control group (FIG. 2a, f, k, p); according to the method described in Example 1, culture was performed up to day 70 or day 75 from the start of suspension culture and without addition. [2]+BMP group (FIG. 2b, g, 1, q); 0.15 nM BMP4 was added from day 22 from the start of suspension culture to completion of suspension culture, and cultured up to day 70 or day 75 from the start of suspension culture. [3]+Cyclopamine-KAAD group (FIG. 2c, h, m, r); 500 nM Cyclopamine-KAAD was added from day 22 from the start of suspension culture to completion of the suspension culture, and cultured up to day 70 or day 75 from the start of suspension culture. [4]+LDN193189 group (FIG. 2d, i, n, s); 100 nM LDN193189 was added from day 22 from the start of suspension culture to completion of the suspension culture, and cultured up to day 70 or day 75 from the start of suspension culture. [5]+SAG group (FIG. 2e, j, o, t); 100 nM SAG was added from day 22 from the start of suspension culture to completion of the suspension culture, and cultured up to day 70 or day 75 from the start of suspension culture. […]

Series [2] deals with OTX2-positive and OC2-positive cells in retinal tissue produced from human ES cells. Briefly: Immunostaining for OTX2 and OC2 of retinal tissue, day 70-75, image analysis (Image J). It counts as cell-based. The conditions noted are these: for number of OTX2-positive cells versus Control (NUC) group / OC2-positive cells: 0.15 nM BMP4, 500 nM Cyclopamine-KAAD; for number of OTX2-positive cells versus Control (NUC) group: 100 nM LDN193189, 100 nM SAG from day 22; for OC2-positive cells: 100 nM LDN193189 or 100 nM SAG from day 22, Control (NUC) about 26.4%; for expression level (intensity of immunostained fluorescence) of OC2 as compared to the Control (NUC) group, on average: 0.15 nM BMP4 or 500 nM Cyclopamine-KAAD from day 22.
Excerpt: Here, the proportion of the number of OC2-positive cells contained in the neural retinal tissue can be determined by those of ordinary skill in the art by performing conventionally possible immunostaining and the like by using an anti OC2 antibody, DAPI and the like, measuring the number of OC2-positive cells, the number of DAPI-positive cells and the like, and identifying the ratio thereof contained in a neural retinal tissue. The expression level of OC2 protein can be determined by those of ordinary skill in the art by performing conventionally possible immunostaining and the like by using an anti OC2 antibody, DAPI and the like, and analyzing the region stained by an anti OC2 antibody by using image analysis software such as Image J and the like to identify the signal intensity of OC2-positive cells. Alternatively, the proportion of the number of OC2-positive cells contained in a neural retinal tissue and/or the OC2 protein expression level of OC2-positive cell may be identified by analysis using conventional flow cytometry using an antibody against OC2 protein.
as §1, §2
[1] Control group (FIG. 2a, f, k, p); according to the method described in Example 1, culture was performed up to day 70 or day 75 from the start of suspension culture and without addition. [2]+BMP group (FIG. 2b, g, 1, q); 0.15 nM BMP4 was added from day 22 from the start of suspension culture to completion of suspension culture, and cultured up to day 70 or day 75 from the start of suspension culture. […]

For `CC1=C2C[C@H]3[C@@H](CC=C4CC(=O)CC[C@@]43C)[C@@H]2CC[C@]12O[C@@H]1C[C@H](C)CN(CCNC(=O)CCCCCNC(=O)CCc3ccccc3)[C@H]1[C@H]2C` [Cyclopamine-KAAD], in series [1], the “CRX-positive and TRβ2-positive cells (cone photoreceptor precursor; proportion to DAPI-positive cells)” value (from here on “CRX-positive and TRβ2-positive cells”) is recorded as about 8.1%; the “CRX-positive cells (proportion to DAPI-positive cells)” value is given as about 14.1%; the “green fluorescence shown by knocked-in CRX::Venus (order of groups)” value (from here on “green fluorescence shown”) is recorded as “observed more in the order of +BMP4 group, +Cyclopamine-KAAD group, Control group, +LDN193189 group, +SAG group”; the “cone photoreceptor precursor that emerges in initial stage of development (CRX-positive, TRβ2-expressing) versus Control group” value is given as “observed more”. The “CRX-positive cells (photoreceptor precursors) versus retinal tissue of the Control group” value in series [1] is given as “Slightly more”. Further, in series [2], the “number of OTX2-positive cells versus Control (NUC) group” value was “higher”; the OC2-positive cells is reported as about 16.7%; the “expression level (intensity of immunostained fluorescence) of OC2 as compared to the Control (NUC) group, on average” value was “about 64%”.

Consider `c1ccc2c(-c3cnn4cc(-c5ccc(N6CCNCC6)cc5)cnc34)ccnc2c1` [LDN193189, 4-[6-(4-piperazin-1-ylphenyl)pyrazolo[1,5-a]pyrimidin-3-yl]quinoline], for which, in series [1], the “CRX-positive and TRβ2-positive cells” value is about 4.5%; the “CRX-positive cells (proportion to DAPI-positive cells)” value was “about 6.8%”; the “green fluorescence shown” value is reported as “observed more in the order of +BMP4 group, +Cyclopamine-KAAD group, Control group, +LDN193189 group, +SAG group”; the “cone photoreceptor precursor that emerges in initial stage of development (CRX-positive, TRβ2-expressing) versus Control group” value is given as “less”. Moreover, in series [1], the “CRX::Venus-positive cells (GFP immunostaining) versus Control (NUC) group” value was “decreased” and the “CRX-positive cells (photoreceptor precursors) versus retinal tissue of the Control group” value is “less”. Further, in series [2], the “number of OTX2-positive cells versus Control (NUC) group” value is “lower” and the OC2-positive cells is reported as about 35.1%.

With `CNC1CCC(N(Cc2cccc(-c3ccncc3)c2)C(=O)c2sc3ccccc3c2Cl)CC1` (stereo not drawn) [SAG], in series [1], the “CRX-positive and TRβ2-positive cells” value was about 3.2%; the “CRX-positive cells (proportion to DAPI-positive cells)” value is about 5.1%; the “green fluorescence shown” value was “observed more in the order of +BMP4 group, +Cyclopamine-KAAD group, Control group, +LDN193189 group, +SAG group”; the “cone photoreceptor precursor that emerges in initial stage of development (CRX-positive, TRβ2-expressing) versus Control group” value is recorded as “less”. Besides, in series [1], the “CRX::Venus-positive cells (GFP immunostaining) versus Control (NUC) group” value is listed as “decreased” and the “CRX-positive cells (photoreceptor precursors) versus retinal tissue of the Control group” value is “lesser”. For the same molecule, in series [2], the “number of OTX2-positive cells versus Control (NUC) group” value is listed as “lower” and the OC2-positive cells is recorded as about 27.3%.

Take “BMP4: BMP protein; BMP signal transduction pathway agonist used as dorsalization signal transmitter”: in series [1], the “CRX-positive and TRβ2-positive cells” value is recorded as “about 10.8%”; the “CRX-positive cells (proportion to DAPI-positive cells)” value is given as “about 17.0%”; the “green fluorescence shown” value was “observed more in the order of +BMP4 group, +Cyclopamine-KAAD group, Control group, +LDN193189 group, +SAG group”; the “cone photoreceptor precursor that emerges in initial stage of development (CRX-positive, TRβ2-expressing) versus Control group” value is listed as “observed more”. Besides, in series [1], the “CRX::Venus-positive cells (GFP immunostaining) versus Control (NUC) group” value is “increased” and the “CRX-positive cells (photoreceptor precursors) versus retinal tissue of the Control group” value is “clearly higher”. Besides, in series [2], the “number of OTX2-positive cells versus Control (NUC) group” value was “higher”; the OC2-positive cells entry is “about 16.0%”; the “expression level (intensity of immunostained fluorescence) of OC2 as compared to the Control (NUC) group, on average” value is listed as “about 36%”.
